Assay results taken from publication PMC7317746 (Environmental and Molecular Mutagenesis, 2020).

Test system: male Sprague Dawley rats
Assay: Pig‐a assay
Assay type: in vivo, rat
[1] = 1-Month Study, 250 mg/kg/day, Day 15
[2] = 1-Month Study, 250 mg/kg/day, Day 29
[3] = 1-Month Study, 250 mg/kg/day, Day -1 (pre-treatment)
[4] = 1-Month Study, 500 mg/kg/day, Day 15
[5] = 1-Month Study, 500 mg/kg/day, Day 29
[6] = 1-Month Study, 500 mg/kg/day, Day -1 (pre-treatment)
[7] = 1-Month Study, 1,000 mg/kg/day Days 1-29, Day 57 recovery group
[8] = 1-Month Study, 1,000 mg/kg/day, Day 15
[9] = 1-Month Study, 1,000 mg/kg/day, Day 29
[10] = 1-Month Study, 1,000 mg/kg/day, Day -1 (pre-treatment)
[11] = 2-Week Study, 250 mg/kg/day Days 1-15, Day 16
[12] = 2-Week Study, 500 mg/kg/day Days 1-15, Day 16
[13] = 2-Week Study, 1,000 mg/kg/day Days 1-15, Day 16
[14] = 3-Day Study, 500 mg/kg/day Days 1-3, Day 15
[15] = 3-Day Study, 500 mg/kg/day Days 1-3, Day 30
[16] = 3-Day Study, 500 mg/kg/day Days 1-3, Day 45
[17] = 3-Day Study, 500 mg/kg/day, Day -4 (pre-treatment)
[18] = 3-Day Study, 1,000 mg/kg/day Days 1-3, Day 15

Q: With `CC(=O)Nc1ccc(O)cc1` [acetaminophen, Acetaminophen] as the molecule, how does the “%RETs mean ± SD” value [1] read?
A: The value was 3.7 ± 0.7%.

Q: And the “Number of CD59‐Neg RBCs per 10^6 RBCs mean ± SD” value (shortened to “Number … per 10^6 RBCs mean ± SD”) [1]?
A: The value was 0.6 ± 0.4 per 10^6 RBCs.

Q: What about the “Number of CD59‐Neg RETs per 10^6 RETs mean ± SD” value (“Number … per 10^6 RETs mean ± SD” below) [1] of the same molecule?
A: Its value is 1.8 ± 2.8 per 10^6 RETs.

Q: What about the “%RETs mean ± SD” value [2] of the same molecule?
A: Its value is 2.9 ± 0.4%.

Q: And the “Number … per 10^6 RBCs mean ± SD” value [2]?
A: Its value is 0.9 ± 0.3 per 10^6 RBCs.

Q: What about the “Number … per 10^6 RETs mean ± SD” value [2] of the same molecule?
A: Its value is 3.0 ± 2.2 per 10^6 RETs.

Q: And the “%RETs mean ± SD” value [3]?
A: The value was 5.2 ± 0.6%.

Q: And the “Number … per 10^6 RBCs mean ± SD” value [3]?
A: Its value is 0.7 ± 0.8 per 10^6 RBCs.

Q: What about the “Number … per 10^6 RETs mean ± SD” value [3] of the same molecule?
A: The value was 0.6 ± 0.6 per 10^6 RETs.

Q: And the “%RETs mean ± SD” value [4]?
A: The value was 3.2 ± 0.5%.

Q: And the “Number … per 10^6 RBCs mean ± SD” value [4]?
A: Its value is 0.3 ± 0.2 per 10^6 RBCs.

Q: And the “Number … per 10^6 RETs mean ± SD” value [4]?
A: Its value is 1.0 ± 1.0 per 10^6 RETs.

Q: And the “%RETs mean ± SD” value [5]?
A: Its value is 2.0 ± 0.4 %.

Q: What about the “Number … per 10^6 RBCs mean ± SD” value [5] of the same molecule?
A: The value was 0.5 ± 0.1 per 10^6 RBCs.

Q: And the “Number … per 10^6 RETs mean ± SD” value [5]?
A: Its value is 1.7 ± 1.9 per 10^6 RETs.

Q: What about the “%RETs mean ± SD” value [6] of the same molecule?
A: Its value is 5.5 ± 1.3 %.

Q: And the “Number … per 10^6 RBCs mean ± SD” value [6]?
A: Its value is 0.3 ± 0.1 per 10^6 RBCs.

Q: What about the “Number … per 10^6 RETs mean ± SD” value [6] of the same molecule?
A: Its value is 0.6 ± 0.7 per 10^6 RETs.

Q: What about the “%RETs mean ± SD” value [7] of the same molecule?
A: The value was 2.8 ± 0.6%.

Q: And the “Number … per 10^6 RBCs mean ± SD” value [7]?
A: The value was 0.9 ± 0.5 per 10^6 RBCs.

Q: What about the “Number … per 10^6 RETs mean ± SD” value [7] of the same molecule?
A: Its value is 0.5 ± 0.4 per 10^6 RETs.

Q: And the “%RETs mean ± SD” value [8]?
A: The value was 2.8 ± 1.4%.

Q: And the “Number … per 10^6 RBCs mean ± SD” value [8]?
A: Its value is 0.6 ± 0.4 per 10^6 RBCs.

Q: And the “Number … per 10^6 RETs mean ± SD” value [8]?
A: Its value is 1.6 ± 1.5 per 10^6 RETs.

Q: And the “%RETs mean ± SD” value [9]?
A: The value was 2.4 ± 0.9%.

Q: What about the “Number … per 10^6 RBCs mean ± SD” value [9] of the same molecule?
A: The value was 1.6 ± 1.6 per 10^6 RBCs.

Q: And the “Number … per 10^6 RETs mean ± SD” value [9]?
A: Its value is 4.5 ± 5.9 per 10^6 RETs.

Q: What about the “%RETs mean ± SD” value [10] of the same molecule?
A: The value was 4.6 ± 0.6%.

Q: What about the “Number … per 10^6 RBCs mean ± SD” value [10] of the same molecule?
A: Its value is 0.5 ± 0.3 per 10^6 RBCs.

Q: And the “Number … per 10^6 RETs mean ± SD” value [10]?
A: The value was 0.7 ± 0.7 per 10^6 RETs.

Q: And the “%RETs mean ± SD” value [11]?
A: The value was 2.7 ± 1.0%.

Q: What about the “Number … per 10^6 RBCs mean ± SD” value [11] of the same molecule?
A: The value was 0.7 ± 0.3 per 10^6 RBCs.

Q: And the “Number … per 10^6 RETs mean ± SD” value [11]?
A: The value was 1.4 ± 1.1 per 10^6 RETs.

Q: What about the “%RETs mean ± SD” value [12] of the same molecule?
A: The value was 2.4 ± 0.8 %.

Q: And the “Number … per 10^6 RBCs mean ± SD” value [12]?
A: Its value is 1.1 ± 1.7 per 10^6 RBCs.

Q: What about the “Number … per 10^6 RETs mean ± SD” value [12] of the same molecule?
A: Its value is 0.4 ± 0.4 per 10^6 RETs.

Q: What about the “%RETs mean ± SD” value [13] of the same molecule?
A: Its value is 3.4 ± 0.7%.

Q: What about the “Number … per 10^6 RBCs mean ± SD” value [13] of the same molecule?
A: Its value is 0.5 ± 0.3 per 10^6 RBCs.

Q: And the “Number … per 10^6 RETs mean ± SD” value [13]?
A: Its value is 1.1 ± 0.9 per 10^6 RETs.

Q: What about the “%RETs mean ± SD” value [14] of the same molecule?
A: The value was 3.6 ± 0.6%.

Q: What about the “Number … per 10^6 RBCs mean ± SD” value [14] of the same molecule?
A: The value was 0.4 ± 0.2 per 10^6 RBCs.

Q: What about the “Number … per 10^6 RETs mean ± SD” value [14] of the same molecule?
A: Its value is 0.9 ± 0.7 per 10^6 RETs.

Q: What about the “%RETs mean ± SD” value [15] of the same molecule?
A: The value was 3.1 ± 0.2%.

Q: And the “Number … per 10^6 RBCs mean ± SD” value [15]?
A: Its value is 0.5 ± 0.3 per 10^6 RBCs.

Q: And the “Number … per 10^6 RETs mean ± SD” value [15]?
A: Its value is 1.2 ± 1.2 per 10^6 RETs.

Q: And the “%RETs mean ± SD” value [16]?
A: The value was 2.7 ± 0.4%.

Q: And the “Number … per 10^6 RBCs mean ± SD” value [16]?
A: The value was 0.4 ± 0.2 per 10^6 RBCs.

Q: What about the “Number … per 10^6 RETs mean ± SD” value [16] of the same molecule?
A: Its value is 0.7 ± 1.3 per 10^6 RETs.

Q: What about the “%RETs mean ± SD” value [17] of the same molecule?
A: The value was 3.3 ± 0.8%.

Q: What about the “Number … per 10^6 RBCs mean ± SD” value [17] of the same molecule?
A: The value was 0.4 ± 0.2 per 10^6 RBCs.

Q: And the “Number … per 10^6 RETs mean ± SD” value [17]?
A: The value was 2.0 ± 2.1 per 10^6 RETs.

Q: And the “%RETs mean ± SD” value [18]?
A: The value was 4.8 ± 0.8 %.

Q: And the “Number … per 10^6 RBCs mean ± SD” value [18]?
A: Its value is 0.6 ± 0.2 per 10^6 RBCs.

Q: What about the “Number … per 10^6 RETs mean ± SD” value [18] of the same molecule?
A: Its value is 1.8 ± 2.4 per 10^6 RETs.

Q: And the “%RETs mean ± SD” value (3-Day Study, 1,000 mg/kg/day Days 1-3, Day 30)?
A: Its value is 3.3 ± 0.4%.
